# Entries after “also recorded” stand apart in the source; their conditions may differ. Peptide text beside a SMILES is read from it. * marks the point of attachment. Cbz = O=C(OCc1ccccc1)*
# Tested on: Ub^G76V-GFP reporter (ubiquitin-proteasome system) in transiently transfected cells
# Assay: UPS reporter assay (Ub^G76V-GFP, flow cytometry), functionality control with proteasomal inhibitor
# Format: cell-based
# Details: 5 μM MG-132, 24 hours
# Method: FIGS. 12A-12C show flow-cytometric analysis of untransfected cells (12A), Ub^G76V-GFP transfected cells (12B), and Ub^G76V-GFP transfected cells treated for 24 hours with 5 μM of the proteasomal inhibitor, MG-132 (12C).
# Experiments were conducted during development of embodiments of the present invention to investigate the functional consequences of the mutant ubiquilin2 in protein degradation through the ubiquitin-proteasome system (UPS) was investigated. The UPS reporter substrate Ubiquitin^G76V-Green Fluorescent Protein (Ub^G76V-GFP) was used to test the effects of mutant ubiquilin2 on the ubiquitin-mediated protein degradation. Two mutations at two different sites were tested (P497H and P506T) using the Ub^G76V-GFP reporter system. […]
# SH-SYSY and Neuro2a cells were grown in 24-well plates and double-transfected with the UPS reporter (20) vector containing UbG76V-GFP (Addgene plasmid #11941) and a dual expression vector containing DsRed2 with either wild-type or mutant Ubiquilin 2. […] All flow cytometric data were collected and analyzed using a MoFlo cell sorter and Summit software (DakoCytomation, Fort Collins, Colo.). […] At least 500 such events were recorded. […]
structure (smiles),measurement,value
CC(C)C[C@@H](C=O)NC(=O)[C@H](CC(C)C)NC(=O)[C@H](CC(C)C)NC(=O)OCc1ccccc1 [MG-132] (Cbz-Leu-Leu-Leu-aldehyde),GFP fluorescence (FL1) intensity / accumulation of the Ub^G76V-GFP signal,marked increase in GFP fluorescence (FL1) intensity; also recorded: remarkable accumulation of the Ub^G76V-GFP signal

# — patent US11041205B2, “Molecular targets for ALS and related disorders” (Northwestern University, priority 2010, dated 2021)
